Each structure is given as a SMILES string.

Broadly, the IC50 is the concentration at which inhibition is half-maximal.

ATP-dependent RNA helicase A, sequence (Q08211 whole entry): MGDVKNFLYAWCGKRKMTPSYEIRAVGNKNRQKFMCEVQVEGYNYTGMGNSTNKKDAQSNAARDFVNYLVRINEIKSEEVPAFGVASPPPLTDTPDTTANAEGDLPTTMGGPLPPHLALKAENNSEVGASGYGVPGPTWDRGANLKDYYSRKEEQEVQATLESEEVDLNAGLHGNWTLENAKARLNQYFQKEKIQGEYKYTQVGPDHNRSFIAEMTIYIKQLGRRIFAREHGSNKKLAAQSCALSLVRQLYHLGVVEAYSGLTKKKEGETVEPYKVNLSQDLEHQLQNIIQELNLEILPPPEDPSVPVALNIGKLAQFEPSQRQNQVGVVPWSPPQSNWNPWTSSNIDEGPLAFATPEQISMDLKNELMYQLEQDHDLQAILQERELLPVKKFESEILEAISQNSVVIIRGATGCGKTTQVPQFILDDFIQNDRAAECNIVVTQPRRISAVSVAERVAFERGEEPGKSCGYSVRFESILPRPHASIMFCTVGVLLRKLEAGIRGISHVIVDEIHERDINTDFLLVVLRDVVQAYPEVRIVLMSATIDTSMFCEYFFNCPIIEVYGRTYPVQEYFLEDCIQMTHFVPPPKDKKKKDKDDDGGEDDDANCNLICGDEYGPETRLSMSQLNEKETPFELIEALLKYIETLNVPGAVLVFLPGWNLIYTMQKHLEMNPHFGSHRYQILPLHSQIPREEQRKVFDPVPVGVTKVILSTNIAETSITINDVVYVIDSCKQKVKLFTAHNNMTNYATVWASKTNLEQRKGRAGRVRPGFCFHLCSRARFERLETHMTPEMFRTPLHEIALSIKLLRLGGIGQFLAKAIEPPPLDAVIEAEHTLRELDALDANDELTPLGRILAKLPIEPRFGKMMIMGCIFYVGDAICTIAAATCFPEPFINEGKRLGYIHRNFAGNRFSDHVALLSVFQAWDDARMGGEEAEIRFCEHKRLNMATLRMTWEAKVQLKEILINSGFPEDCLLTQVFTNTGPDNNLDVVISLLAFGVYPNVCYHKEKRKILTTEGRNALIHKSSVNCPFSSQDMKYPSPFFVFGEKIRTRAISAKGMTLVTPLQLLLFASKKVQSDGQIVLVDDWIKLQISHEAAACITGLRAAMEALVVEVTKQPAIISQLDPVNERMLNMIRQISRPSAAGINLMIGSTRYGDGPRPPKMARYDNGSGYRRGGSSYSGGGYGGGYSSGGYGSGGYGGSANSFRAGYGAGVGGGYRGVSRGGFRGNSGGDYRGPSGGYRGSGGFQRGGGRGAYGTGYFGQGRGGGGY

The assay has as its target ATP-dependent RNA helicase A (UniProt Q08211). Briefly: Biochemical Assay.
In turn, `CC(C)(C)OC(=O)N1CCC(n2cc(C(=O)Nc3cc(Cl)cc(NS(C)(=O)=O)c3)cn2)CC1` [US20240316047, Example 136] displayed an IC50 of 234 nM. That is a sub-micromolar value.

Take `Cc1sc(C(=O)Nc2cc(Cl)cc(NS(C)(=O)=O)c2)cc1-c1ncc(N2CCC3(C2)CC3(F)F)cn1` (centres undefined) [US20240316047, Example 491]: the IC50 was 10.8 nM. The figure for `Cc1cccnc1-c1cc(C(=O)Nc2cc(Cl)cc(NS(C)(=O)=O)c2)cn1CC(F)F` [US20240316047, Example 143] is 51.1 nM; for `Cc1cc(C(=O)Nc2cc(Cl)cc(NS(C)(=O)=O)c2)cn1-c1ccccc1` [US20240316047, Example 129] it is 38.4 nM.
